Results published in patent US8999986B2, “Pyrrolo [2,3—D] pyrazin—7—ylpyrimidine compounds” (Merck Patent GmbH, priority 2009, dated 2015).
Like-named read-outs stand apart in the source and are kept apart here.

Key:
PDK1 = target: T1, PDK1 (Homo sapiens, UniProt O15530); test: Test for the inhibition of PDK1 (flashplate, 33P-ATP); type: biochemical; conditions: His6-PDK1(1-50) 3.4 nM, 4 μM ATP, 30° C., 60 min
T1 construct: His6 (N)
T1 sequence (O15530 51-556 limits assumed): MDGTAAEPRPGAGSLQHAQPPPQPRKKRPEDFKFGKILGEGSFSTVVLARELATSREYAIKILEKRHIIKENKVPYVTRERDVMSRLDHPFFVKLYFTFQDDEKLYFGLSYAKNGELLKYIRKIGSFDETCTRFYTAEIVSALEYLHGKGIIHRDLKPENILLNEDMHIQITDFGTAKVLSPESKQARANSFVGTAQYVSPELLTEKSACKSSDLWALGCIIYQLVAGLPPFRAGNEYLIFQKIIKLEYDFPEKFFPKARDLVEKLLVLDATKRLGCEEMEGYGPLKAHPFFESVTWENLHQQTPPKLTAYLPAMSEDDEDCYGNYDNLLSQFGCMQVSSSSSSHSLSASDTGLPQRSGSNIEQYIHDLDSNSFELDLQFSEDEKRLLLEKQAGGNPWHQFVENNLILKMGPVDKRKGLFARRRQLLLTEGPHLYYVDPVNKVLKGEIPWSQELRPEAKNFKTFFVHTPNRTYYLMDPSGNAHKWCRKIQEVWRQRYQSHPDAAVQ
Protocol: The experimental batches are carried out in a flashplate system with 384 wells/microtitration plate.
In each case, the PDK1 sample His6-PDK1(1-50)(3.4 nM), the PDK1 substrate biotin-bA-bA-[…] (400 nM), 4 μM ATP (with 0.2 μCi of ^33P-ATP/well) and the test substance in 50 μl of conventional experimental solution per well are incubated at 30° C. for 60 min. The test substances are employed in corresponding concentrations (if desired in a dilution series). The control is carried out without test substance. The reaction is stopped using standard methods and washed. The activity of the kinase is measured via the incorporated radioactivity in top count. In order to determine the non-specific kinase reaction (blank value), the experimental batches are carried out in the presence of 100 nM staurosporin.
The radioactivity (decompositions per minute) of the blank value (no use of test substance in the presence of staurosporin) is subtracted from all other radioactivity values. The controls (kinase activity without test substance) are set equal to 100 percent and all other radioactivity values (after subtracting the blank value) are expressed set in relation thereto (for example in % of the control).
[formula] IC50 values (50% inhibition) are determined with the aid of statistics pro-grammes, such as, for example, RS1.

[1] = tested on: phospho-T308-PKB in PC3 cells; test: Cellular testing of PDK1 kinase inhibitors in PC3 cells (Luminex, phospho-T308-PKB); type: cell-based; conditions: Homo sapiens
Protocol: Method for the Cellular Testing of PDK1 Kinase Inhibitors in PC3 Cells.
The cellular assay for the determination of the PDK1 kinase activity is carried out as a Luminex assay in the 96-well format. PC3 cells are sown at 20,000 cells per well in 100 μl of medium (45% of […]/45% of Ham's F12/10% of FCS) and incubated on the following day for 30 min with a serial dilution of the test substance (7 concentrations) under serum-free conditions. The cells are subsequently lysed using 90 μl of lysis buffer (20 mM tris/HCl pH 8.0, 150 mM NaCl, 1% of NP40, 10% of glycerol, 1% of phosphatase inhibitor I, 1% of phosphatase inhibitor II, 0.1% of protease inhibitor cocktail 111, 0.01% of benzonase) per well, and the lysates are separated off from insoluble cell constituents by means of centrifugation through a 96-well filter plate (0.65 μm). The lysates are incubated overnight at 4° C. with shaking with Luminex beads to which an anti-total PKB antibody is coupled. The detection is carried out on the following day by addition of a phospho-T308-PKB antibody and a species-specific […] secondary antibody. The detection of phospho-T308-PKB is carried out by measurement in a Luminex100 instrument by determination of 100 events per cavity in a measurement time of 60 sec. As pharmacological blank, the signals obtained from cells which have been treated with 10 μM staurosporin are subtracted from all other batches. The control value used for maximum phosphorylation of PKB on T308 are the signals from cells which have only been treated with the solvent (0.3% of DMSO). The values of the batches treated with test substance are calculated therefrom as percentage of control, and IC50 values are determined by means of RS1.

[2] = PC-3, cellular assay, cell line not named, read-out: IC50 [cell]

Row | IC50 (PDK1) | IC50 [1, 2] | IC50 ([1]; PC-3, 0.5 h, PC3 cells, 30 min with test substance, serum-free, read-out: IC50 [P-PKB T308]) | Structure (SMILES)
1 | 90 nM | 2.2 nM |  | CC[C@](O)(c1cccc(F)c1)c1cc(-c2c[nH]c3ncc(-c4cnn(C)c4)nc23)nc(N)n1 (single isomer, unassigned) [A29]
2 | 18 nM | 21 nM |  | CC[C@@](O)(c1cccc(F)c1)c1cc(-c2c[nH]c3ncc(-c4cnn(C)c4)nc23)nc(N)n1 (single isomer, unassigned) [A30]
3 | 24 nM | 4.8 nM |  | CC[C@@](O)(c1cc(-c2c[nH]c3ncc(-c4cnn(C)c4)nc23)nc(N)n1)c1ccccc1F (single isomer, unassigned) [A31]
4 | 95 nM | 2.9 nM |  | CC[C@](O)(c1cc(-c2c[nH]c3ncc(-c4cnn(C)c4)nc23)nc(N)n1)c1ccccc1F (single isomer, unassigned) [A32]
5 | 54 nM | 92 nM |  | CCC(O)(c1cc(-c2c[nH]c3ncc(-c4cnn(C)c4)nc23)nc(N)n1)c1ccccc1F (stereo not drawn) [A24, 1-{2-Amino-6-[2-(1-methyl-1H-pyrazol-4-yl)-5H-pyrrolo[2,3-b]pyrazin-7-yl]-pyrimidin-4-yl}-1-(2-fluorophenyl)propan-1-ol]
6 | 36 nM | 110 nM |  | CCC(O)(c1cccc(F)c1)c1cc(-c2c[nH]c3ncc(-c4cnn(C)c4)nc23)nc(N)n1 (stereo not drawn) [A25, 1-{2-Amino-6-[2-(1-methyl-1H-pyrazol-4-yl)-5H-pyrrolo[2,3-b]pyrazin-7-yl]-pyrimidin-4-yl}-1-(3-fluorophenyl)propan-1-ol]
7 | 44 nM | 580 nM |  | CCC(O)(c1cc(-c2c[nH]c3ncc(-c4cnn(C)c4)nc23)nc(N)n1)c1ccncc1F (stereo not drawn) [A26, 1-{2-Amino-6-[2-(1-methyl-1H-pyrazol-4-yl)-5H-pyrrolo[2,3-b]pyrazin-7-yl]-pyrimidin-4-yl}-1-(3-fluoropyridin-4-yl)propan-1-ol]
8 | 90 nM | 600 nM |  | CCC(OCOC)(c1cc(-c2c[nH]c3ncc(-c4cnn(C)c4)nc23)nc(N)n1)c1ccncc1F (stereo not drawn) [A27, 4-[1-(3-Fluoropyridin-4-yl)-1-methoxymethoxypropyl]-6-[2-(1-methyl-1H-pyrazol-4-yl)-5H-pyrrolo[2,3-b]pyrazin-7-yl]pyrimidin-2-ylamine]
9 | 17 nM | 160 nM |  | CCC(O)(c1ccncc1)c1cc(-c2c[nH]c3ncc(-c4cnn(C)c4)nc23)nc(N)n1 (stereo not drawn) [A28, 1-{2-Amino-6-[2-(1-methyl-1H-pyrazol-4-yl)-5H-pyrrolo[2,3-b]pyrazin-7-yl]-pyrimidin-4-yl}-1-pyridin-4-ylpropan-1-ol]

The next lines start with the compound.

Row | Structure (SMILES) | IC50 (PDK1) | IC50 [1, 2] | IC50 ([1]; PC-3, 0.5 h, PC3 cells, 30 min with test substance, serum-free, read-out: IC50 [P-PKB T308])
10 | Cn1cc(-c2cnc3[nH]cc(-c4cc([C@@](C)(O)c5ccccc5F)nc(N)n4)c3n2)cn1 (single isomer, unassigned) [A8] | 43 nM | 570 nM | 
11 | Cn1cc(-c2cnc3[nH]cc(-c4cc([C@](C)(O)c5ccccc5F)nc(N)n4)c3n2)cn1 (single isomer, unassigned) [A9] | 47 nM | 150 nM | 
12 | COCOC(C)(c1cccc(F)c1)c1cc(-c2c[nH]c3ncc(-c4cnn(C)c4)nc23)nc(N)n1 (stereo not drawn) [A2, 4-[1-(3-fluorophenyl)-1-methoxymethoxyethyl]-6-[2-(1-methyl-1H-pyrazol-4-yl)-5H-pyrrolo[2,3-b]pyrazin-7-yl]pyrimidin-2-ylamine] | 120 nM |  | 810 nM
13 | Cn1cc(-c2cnc3[nH]cc(-c4cc(C(C)(O)c5cccc(F)c5)nc(N)n4)c3n2)cn1 (stereo not drawn) [A3, 1-{2-amino-6-[2-(1-methyl-1H-pyrazol-4-yl)-5H-pyrrolo[2,3-b]pyrazin-7-yl]-pyrimidin-4-yl}-1-(3-fluorophenyl)ethanol] | 71 nM | 530 nM | 
14 | Cn1cc(-c2cnc3[nH]cc(-c4cc(C(C)(O)c5ccccc5)nc(N)n4)c3n2)cn1 (stereo not drawn) [A4, 1-{2-Amino-6-[2-(1-methyl-1H-pyrazol-4-yl)-5H-pyrrolo[2,3-b]pyrazin-7-yl]-pyrimidin-4-yl}-1-phenylethanol] | 55 nM | 570 nM | 
15 | COCOC(C)(c1ccccc1)c1cc(-c2c[nH]c3ncc(-c4cnn(C)c4)nc23)nc(N)n1 (stereo not drawn) [A5, 4-(1-Methoxymethoxy-1-phenylethyl)-6-[2-(1-methyl-1H-pyrazol-4-yl)-5H-pyrrolo[2,3-b]pyrazin-7-yl]pyrimidin-2-ylamine] | 90 nM | 420 nM | 
16 | Cn1cc(-c2cnc3[nH]cc(-c4cc(C(C)(O)c5ccccc5F)nc(N)n4)c3n2)cn1 (stereo not drawn) [A6, 1-{2-Amino-6-[2-(1-methyl-1H-pyrazol-4-yl)-5H-pyrrolo[2,3-b]pyrazin-7-yl]-pyrimidin-4-yl}-1-(2-fluorophenyl)ethanol] | 31 nM | 190 nM | 
17 | COCOC(C)(c1cc(-c2c[nH]c3ncc(-c4cnn(C)c4)nc23)nc(N)n1)c1ccccc1F (stereo not drawn) [A7, 4-[1-(2-Fluorophenyl)-1-methoxymethoxyethyl]-6-[2-(1-methyl-1H-pyrazol-4-yl)-5H-pyrrolo[2,3-b]pyrazin-7-yl]pyrimidin-2-ylamine] | 77 nM | 260 nM | 
18 | CC(C)n1cc(-c2cnc3[nH]cc(-c4cc(C(C)(O)c5ccccc5F)nc(N)n4)c3n2)cn1 (stereo not drawn) [A33, 1-{2-Amino-6-[2-(1-isopropyl-1H-pyrazol-4-yl)-5H-pyrrolo[2,3-b]pyrazin-7-yl]-pyrimidin-4-yl}-1-(2-fluorophenyl)ethanol] | 350 nM | 250 nM | 
